Test results published in patent US20160069865A1, “GM1 GANGLIOSIDOSIS HUMAN CELL MODEL AND USE THEREOF” (Korea Research Institute of Bioscience and Biotechnology, priority 2014, published 2016).

What was measured:
GM1-NPCs [1] = test: Morphology of GM1-NPCs originated neurosphere after treatment with inflammasome inhibitors (phase-contrast microscopy); assay type: cell-based, human; settings: GM1-iPSCs and neural progenitor cells differentiated from the same; summary statement
Description: To investigate the recovery of neural damage caused by the increased activation of inflammasome related metabolic pathway in GM1, GM1-NPCs were treated with the inflammasome inhibitors IL1β antagonist (rhIL1RA) and caspase-1 inhibitor (Z-YVAD-FMK), and then the morphology of GM1-NPCs was investigated.
Particularly, the differentiation of GM1-NPCs was induced by the same manner as described in Example <4-1>. Then, the induced GM1-NPCs were cultured in the culture medium respectively treated with 1 μg/ml rhIL1RA (R&D Systems, USA) or 10 μM Z-YVAD-FMK (Merck Millipore, Germany) in order to inhibit inflammasome therein. 2˜4 weeks later, the cultured GM1-NPCs originated neurosphere was obtained. The morphology of neurosphere was observed by phase-contrast microscopy.

GM1-NPCs [2] = test: Gene expression pattern in GM1-NPCs treated with inflammasome inhibitor (microarray, qPCR); assay type: cell-based, human; settings: for direction of the gene expression pattern change: genes with changed expression in treated GM1-NPCs, FIG. 31, FIG. 33; for share of oligo probe pairs / genes displaying the changed expression pattern: microarray, total 27,375 oligo probe pairs, GM1-NPCs treated with 10 μM Z-YVAD-FMK or 1 μg/ml rhIL1RA
Description: To investigate whether or not the neural damage could be alleviated according to the increase of the activation of inflammasome related metabolic pathway in GM1, the gene expression pattern in GM1-NPCs treated with the inflammasome inhibitor was investigated.
Particularly, GM1-NPCs were differentiated according to the method described in Example <4-1>, and then treated with rhIL1RA or Z-YVAD-FMK by the same manner as described in Example <9-1>. Microarray was performed by the same manner as described in Example <7-1> in order to investigate the up- or down-regulation of the gene involved in inflammasome. […] WT-NPC was used as the normal control. As for the negative control, GM1-NPCs were treated with DMSO instead of rhIL1RA or Z-YVAD-FMK. The expression pattern (either up- or down regulation) and the mRNA expression level were investigated by the same manner as described above.

[3] = GM1-NPCs treated with 10 μM Z-YVAD-FMK, FIG. 32

Compound | GM1 patient-specific cell morphology and gene expression pattern (GM1-NPCs [1]) | increase of the reduced B4GALNT expression (GM1-NPCs [2]; [3]) [fold] | reduction of GLB1 expression compared with that in GM1-NPCs (GM1-NPCs [2]; [3]) [%] | direction of the gene expression pattern change (GM1-NPCs [2]) | share of oligo probe pairs / genes displaying the changed expression pattern (GM1-NPCs [2]) [%]
COC(=O)C[C@H](NC(=O)[C@H](C)NC(=O)[C@@H](NC(=O)C(Cc1ccc(O)cc1)NC(=O)OCc1ccccc1)C(C)C)C(=O)CF (stereo partly drawn) [Z-YVAD-FMK, methyl (3S)-3-[(2S)-2-[(2S)-2-(2-{[(benzyloxy)carbonyl]amino}-3-(4-hydroxyphenyl)propanamido)-3-methylbutanamido]propanamido]-5-fluoro-4-oxopentanoate] | recovering the GM1 patient-specific cell morphology and gene expression pattern to the normal ones | 2.6 | 47 | tendency to recover their gene expression patterns changed by GM1 mediated neural damage back to the normal pattern | 9.3
rhIL1RA: interleukin 1-receptor antagonist protein, SEQ. ID. NO: 2, commercial (cat #280-RA-050; R&D systems) | recovering the GM1 patient-specific cell morphology and gene expression pattern to the normal ones | – | – | tendency to recover the abnormal gene expression in GM1 cells to the normal expression pattern | 3.6
